Reference: patent US7862798B2, “Vitamin-targeted imaging agents” (Endocyte, Inc., priority 2002, dated 2011)
Values belong to the molecule of their own block, whether it stands above or below them.

Assays:
[1] = molecular target: T1, folate receptor (FR) on FR-positive KB cells (Homo sapiens, UniProt P15328); assay: Relative affinity assay (blocking of 3H-folic acid binding to KB cells); conditions: for IC50: 100 nM 3H-folic acid, KB cells, 15 min on ice, triplicate; for RA (relative affinity): inverse molar ratio to displace 50% of 3H-folic acid, folic acid set to 1
T1 construct: FR-positive KB cells were gently trypsinized; endogenous in cells; host or cells: KB cells
Protocol: The relative affinity of various folate derivatives was determined according to the method described by Westerhoff et al. (Mol. Pharm., 48: 459-471 (1995)) with slight modification. Briefly, FR-positive KB cells were gently trypsinized in 0.25% trypsin/PBS at room temperature for 3 minutes and then diluted in FFRPMI/HIFCS. Following a 5 min 800×g spin and one PBS wash, the final cell pellet was suspended in FFRPMI 1640 (no serum). […] Samples were centrifuged at 10,000×g for 5 min, cell pellets were suspended in buffer, were transferred to individual vials containing 5 mL of scintillation cocktail, and were then counted for radioactivity.
Likewise, values lower than unity reflect weaker affinity, and values higher than unity reflect stronger affinity.
Following a 15-minute incubation at 4° C., cells were rinsed free of unbound material and counted for residual cell-associated radioactivity.

[2] = molecular target: T2, folate receptor (FR) on KB cells (Homo sapiens, UniProt P15328); assay: Concentration-dependent cell uptake (Scatchard analysis); format: binding; conditions: 2 hours at 37° C., read-out: KD of binding (Scatchard analysis)
T2 construct: FR-positive KB cells were gently trypsinized; endogenous in cells; host or cells: KB cells
Protocol: KB cells were seeded in 12-well Falcon plates and allowed to form sub-confluent monolayers overnight. Following one rinse with 1 mL of fresh FERPMI/HIFCS, each well received 1 mL of FFRPMI/HIFCS containing increasing concentrations of ^99mTc-EC20. Cells were incubated for 2 hours at 37° C. and then rinsed four times with 1 mL of ice-cold PBS, pH 7.4. The monolayers were dissolved in 0.5 mL of PBS, pH 7.4 containing 1% sodium dodecyl sulfate for 15 min at room temperature and then counted for radioactivity using a Packard gamma counter. Protein content was determined as described above, and final tabulated values were expressed in terms of molecules of EC20 per cell.
The particular KB cells used were determined to bind a maximum of four million molecules of the folate radiopharmaceutical per cell.
This HPLC-purified radiolabeled material (Peak B material) was collected and then added to cultured KB cells.

[3] = tested on: FR-positive KB tumors; assay: Tissue distribution of 99mTc-EC53, KB tumors (Table 6); format: in vivo
Protocol: (§1) FR-positive KB tumor cells (0.25×10^6 per animal) were inoculated subcutaneously in the intracapsular region. Fourteen days after tumor cell inoculation, the animals (n=4/group) were injected intravenously with ^99mTc-EC11, ^99mTc-EC13, or ^99mTc-EC14 at the doses (about 12 μg/kg) of the conjugates shown in Table 5 below. Stocks of ^99mTc-EC11, ^99mTc-EC13, and ^99mTc-EC14 solutions were prepared on the day of use as described above. About a 20-fold excess of free folate (about 200 μg/kg) was co-administered to control animals (n=4/group). […] Selected tissues were removed, weighed, and counted in an automatic gamma counter to determine ^99mTc distribution. Uptake of the radiopharmaceutical in terms of percentage injected dose of wet weight tissue (% ID/g) was calculated by reference to standards prepared from dilutions of the injected preparation.
Similar results (see Table 6 below) were obtained with ^99mTc-EC53 (the all D-enantiomer of EC20) using similar protocols except that the dose of ^99mTc-EC53 was about 50 μg/kg and about a 100-fold excess of free folate or cold EC53 was used. […] The accumulation was blocked by co-administration of free folate.

[4] = tested on: FR-positive M109 tumors; assay: Tissue distribution, subcutaneous M109 tumors (Example 11)
Protocol: The ability of ^99mTc-EC20 to target tumors in vivo was assessed using a FR-positive M109 model.
Four to five week-old mice (Balb/c strain) were purchased from Harlan Sprague Dawley, Inc. (Indianapolis, Ind.) and were maintained on a folate-free diet for a total of three weeks prior to the experiment. Syngeneic, FR-positive M109 tumor cells (1×10^6 per animal) were inoculated in the subcutis of the right axilla two weeks prior to the experiment.
Animals received an approximate 40 μmol/kg i.v. dose of test article in 100 μL volume via a lateral tail vein during brief diethyl ether anesthesia. Four hours post-injection, animals were sacrificed by CO2 asphyxiation, and dissected. Selected tissues were removed, weighed, and counted to determine ^99mTc distribution. CPM values were decay-corrected, and results were tabulated as % injected dose per gram of wet weight tissue.

[5] = tested on: FR-positive KB tumors; assay: Tissue distribution, KB tumor model (Example 16, Table 5); format: in vivo, nude mice; conditions: about 20-fold excess of free folate
Protocol: The protocols used in this example are similar to those described in Example 11. The ability of ^99mTc-EC11 (peptide-A1), ^99mTc-EC13 (peptide-A3), and ^99mTc-EC14 (peptide-A2) to target tumors in vivo was assessed using the FR-positive KB tumor model.
as §1

[6] = tested on: KB tumor; conditions: reported previously; cited from earlier work
[7] = 4 hr post i.v., + Folic acid (100 equivalents)
[8] = 4 hr post intravenous injection

T1 sequence (P15328 25-234): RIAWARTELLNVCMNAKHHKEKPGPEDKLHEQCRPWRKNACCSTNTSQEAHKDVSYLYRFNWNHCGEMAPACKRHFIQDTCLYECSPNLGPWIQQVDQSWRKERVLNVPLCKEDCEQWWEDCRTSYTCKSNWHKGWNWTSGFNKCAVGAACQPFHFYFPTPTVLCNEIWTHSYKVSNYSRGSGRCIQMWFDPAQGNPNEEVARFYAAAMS
T2 sequence (P15328 25-234): as above

Tumor/Blood, Average ([3]; 99mTc-EC53 alone): 31.4
Tumor/Kidney, Average ([3]; 99mTc-EC53 alone): 0.2
Tumor/Liver, Average ([3]; 99mTc-EC53 alone): 3.4
Tumor/Muscle, Average ([3]; 99mTc-EC53 alone): 17.1
Tumor, Average ([3]; 99mTc-EC53 alone, 50.0 ug/kg): 11.77 % ID/g
blood, Average ([3]; 99mTc-EC53 alone, 50.0 ug/kg): 0.38 % ID/g
heart, Average ([3]; 99mTc-EC53 alone, 50.0 ug/kg): 1.09 % ID/g
intestine, Average ([3]; 99mTc-EC53 alone, 50.0 ug/kg): 3.53 % ID/g
kidney, Average ([3]; 99mTc-EC53 alone, 50.0 ug/kg): 77.99 % ID/g
liver, Average ([3]; 99mTc-EC53 alone, 50.0 ug/kg): 3.86 % ID/g
lung, Average ([3]; 99mTc-EC53 alone, 50.0 ug/kg): 0.89 % ID/g
muscle, Average ([3]; 99mTc-EC53 alone, 50.0 ug/kg): 0.76 % ID/g
spleen, Average ([3]; 99mTc-EC53 alone, 50.0 ug/kg): 0.67 % ID/g
stomach, Average ([3]; 99mTc-EC53 alone, 50.0 ug/kg): 1.04 % ID/g
accumulation in FR-positive KB tumors and kidneys on co-administration of free folate ([3]; about a 100-fold excess of free folate): blocked
Tumor/Blood, Average ([3]; plus EC53 (cold)): 4.5
Tumor/Kidney, Average ([3]; plus EC53 (cold)): 0.14
Tumor/Liver, Average ([3]; plus EC53 (cold)): 0.3
Tumor/Muscle, Average ([3]; plus EC53 (cold)): 8.5
Tumor/Blood, Average ([3]; plus Folic Acid): 2.2
Tumor/Kidney, Average ([3]; plus Folic Acid): 0.07
Tumor/Liver, Average ([3]; plus Folic Acid): 0.1
Tumor/Muscle, Average ([3]; plus Folic Acid): 5.2
Molecule: Nc1nc2ncc(CNc3ccc(C(=O)N[C@H](CCC(=O)NC[C@H]4[NH2+][99Tc-]56(=[O])[S]C[C@H](C(=O)O)[N]5C(=O)[C@@H](CC(=O)O)[N]6C4=O)C(=O)O)cc3)nc2c(=O)[nH]1 [^99mTc-EC53]

Tumor/Blood [4, 7]: 2.00 ± 2.00
Tumor/Blood [4, 8]: 34.1 ± 7.41
accumulation in FR-positive KB tumors and kidneys on co-administration of free folate [5]: blocked
Molecule: Nc1nc2ncc(CNc3ccc(C(=O)N[C@@H](CCC(=O)N[C@H](CCC(=O)NC[C@@H]4[NH2+][99Tc-]56(=[O])[S]C[C@@H](C(=O)O)[N]5C(=O)[C@H](CC(=O)O)[N]6C4=O)C(=O)O)C(=O)O)cc3)nc2c(=O)[nH]1 [^99mTc-EC14]
Blood [4, 7]: 0.19 ± 0.07 % Injected Dose per Gram Tissue
Heart [4, 7]: 0.08 ± 0.01 % Injected Dose per Gram Tissue
Intestine [4, 7]: 0.32 ± 0.11 % Injected Dose per Gram Tissue
Kidney [4, 7]: 5.94 ± 0.52 % Injected Dose per Gram Tissue
Liver [4, 7]: 1.37 ± 0.98 % Injected Dose per Gram Tissue
Lung [4, 7]: 0.15 ± 0.04 % Injected Dose per Gram Tissue
Muscle [4, 7]: 0.09 ± 0.11 % Injected Dose per Gram Tissue
Spleen [4, 7]: 2.99 ± 1.43 % Injected Dose per Gram Tissue
Stomach [4, 7]: 0.10 ± 0.03 % Injected Dose per Gram Tissue
Tumor [4, 7]: 0.43 ± 0.52 % Injected Dose per Gram Tissue
Blood [4, 8]: 0.31 ± 0.14 % Injected Dose per Gram Tissue
Heart [4, 8]: 2.39 ± 0.64 % Injected Dose per Gram Tissue
Intestine [4, 8]: 1.70 ± 0.55 % Injected Dose per Gram Tissue
Kidney [4, 8]: 98.0 ± 40.7 % Injected Dose per Gram Tissue
Liver [4, 8]: 3.44 ± 2.19 % Injected Dose per Gram Tissue
Lung [4, 8]: 2.08 ± 0.40 % Injected Dose per Gram Tissue
Muscle [4, 8]: 0.99 ± 0.28 % Injected Dose per Gram Tissue
Spleen [4, 8]: 2.68 ± 2.49 % Injected Dose per Gram Tissue
Stomach [4, 8]: 1.47 ± 0.58 % Injected Dose per Gram Tissue

IC50 [1]: 83 nM
RA (relative affinity) [1]: 1.42
RA (relative affinity) ([1]; listed as Re-EC20 isomer A): 1.42
Molecule: Nc1nc2ncc(CNc3ccc(C(=O)N[C@H](CCC(=O)NC[C@@H]4[NH2+][Re-]56(=[O])[S]C[C@@H](C(=O)O)[N]5C(=O)[C@H](CC(=O)O)[N]6C4=O)C(=O)O)cc3)nc2c(=O)[nH]1 (single isomer, unassigned; isomer 1) [EC20:Re isomer 1]

More lines, now with the values behind:

Molecule: Nc1nc2ncc(CNc3ccc(C(=O)NC(CCC(=O)NCC(N)C(=O)NC(CC(=O)O)C(=O)NC(CS)C(=O)O)C(=O)O)cc3)nc2c(=O)[nH]1 (stereo not shown) [EC20]
IC50 [1]: 128 nM
RA (relative affinity) [1]: 0.92
Kd [2]: ~3 nM

Molecule: Nc1nc2ncc(CNc3ccc(C(=O)N[C@H](CCC(=O)NC[C@@H]4[NH2+][Re-]56(=[O])[S]C[C@@H](C(=O)O)[N]5C(=O)[C@H](CC(=O)O)[N]6C4=O)C(=O)O)cc3)nc2c(=O)[nH]1 (single isomer, unassigned; isomer 2) [EC20:Re isomer 2]
IC50 [1]: 86 nM
RA (relative affinity) [1]: 1.37
RA (relative affinity) ([1]; listed as Re-EC20 isomer B): 1.37

Molecule: ^99mTc-12-amino-3,3,9,9-tetramethyl-5-oxa-4,8 diaza-2,10-dodecanedinoe dioxime (OXA) folate conjugate
tracer uptake in a KB tumor [6]: ~7 % ID/g
